IC50 data for five compounds are collected here from ChEMBL document CHEMBL1142194, “High-throughput Plasmodium falciparum growth assay for malaria drug discovery” (Antimicrob Agents Chemother, 2007).

In test [1] the test system is Plasmodium falciparum. Description: (§1) Growth inhibition of Plasmodium falciparum ring stage in infected erythrocytes by DAPI growth assay. The test is classed as functional, organism-based.
Test [2] deals with Plasmodium falciparum. The description is as §1. Type of test: functional, organism-based. The source holds these as a separate data set.
In test [3] the test system is Plasmodium falciparum. Description: Growth inhibition of Plasmodium falciparum as reduced [3H]hypoxanthine incorporation. The test is classed as functional, organism-based.
The test system of test [4] is Plasmodium falciparum. Put plainly: microbe, parasite or virus in culture. As to conditions: Dd2, 72 h.
Description: Growth inhibition of Plasmodium falciparum Dd2 ring stage infected erythrocytes after 72 hrs by DAPI fluorimetry
The subject of test [5] is Plasmodium falciparum. Description: microbe, parasite or virus in culture. As to conditions: 3D7, 72 h.
Description: Growth inhibition of Plasmodium falciparum 3D7 ring stage in infected erythrocytes after 72 hrs in DAPI fluorimetry
Test [6] deals with Plasmodium falciparum. Description: microbe, parasite or virus in culture. As to conditions: HB3, 72 h.
Description: Growth inhibition of Plasmodium falciparum HB3 ring stage in infected erythrocytes after 72 hrs in DAPI fluorimetry

On to `C=C[C@H]1CN2CC[C@H]1C[C@H]2[C@H](O)c1ccnc2ccc(OC)cc12` [QUININE], for which the figures for the IC50 in test [1], in test [2] and in test [3] were 69.2 nM, 66.5 nM and 62.8 nM, respectively.
Turning to `OC(c1cc(C(F)(F)F)nc2c(C(F)(F)F)cccc12)C1CCCCN1` (stereo not drawn) [MEFLOQUINE], the 50% inhibitory concentration (IC50) (in general, the concentration that inhibits the measured activity by half) in test [4] was 26 nM; in test [5] it was 12.3 nM; in test [6], 9.63 nM.
As for `CCc1nc(N)nc(N)c1-c1ccc(Cl)cc1` [PYRIMETHAMINE], the IC50 is 44.1 nM in test [4], 10 nM in test [5] and 49.9 nM in test [6].
On to `O=C1C(O)=C([C@H]2CC[C@H](c3ccc(Cl)cc3)CC2)C(=O)c2ccccc21` [ATOVAQUONE], for which the IC50 was 0.63 nM in test [1], 0.66 nM in test [2] and 0.61 nM in test [3].
As to `C[C@@H]1CC[C@H]2[C@@H](C)C(=O)O[C@@H]3O[C@@]4(C)CC[C@@H]1[C@]32OO4` [ARTEMISININ], the IC50 in test [4] is 12.3 nM; in test [1], 9.67 nM; in test [2] it was 10.8 nM; in test [3] it was 10.1 nM; in test [5], 10.8 nM; in test [6], 9.7 nM.
